Here are results for 30 compounds from ChEMBL document CHEMBL1153695, “Asymmetrical diaromatic guanidinium/2-aminoimidazolinium derivatives: synthesis and DNA affinity” (J Med Chem, 2009).

Common to all, as to type: nucleic-acid assay
In assay [1] the test system is Nucleic Acid. Briefly: Binding affinity to Poly(dA).Poly(dT) DNA in MES buffer assessed as change in melting temperature.
Assay [2] deals with Nucleic Acid. Briefly: Binding affinity to Salmon sperm DNA in phosphate buffer assessed as change in melting temperature. The following applies: Oncorhynchus.
The subject of assay [3] is Nucleic Acid. Briefly: Binding affinity to Poly(dA.dT)2 DNA in phosphate buffer assessed as change in melting temperature.

For `N=C(N)Nc1ccc(Oc2ccc(N=C3NCCN3)cc2)cc1`, the ΔTm (commonly the change in melting temperature against a reference sample) is 25.3 °C in the assay on Nucleic Acid [1], 7 °C in the assay with Nucleic Acid [2] and 10 °C in the assay on Nucleic Acid [3].

Take `N=C(N)Nc1ccc(C(=O)c2ccc(N)cc2)cc1`: the ΔTm in the assay on Nucleic Acid [2] came out at 0 °C.

As for `Nc1ccc(CCc2ccc(N=C3NCCN3)cc2)cc1`, the ΔTm in the assay on Nucleic Acid [2] was found to be 0 °C.

Consider `Nc1ccc(Cc2ccc(N=C3NCCN3)cc2)cc1`, for which the ΔTm in the assay on Nucleic Acid [2] came to 3 °C.

Consider `N=C(N)Oc1ccc(Oc2ccc(OC(=N)N)cc2)cc1`, for which, in the assay with Nucleic Acid [2], the ΔTm was determined as 6 °C.

In the case of `N=C(N)Nc1ccc(NC(=O)Nc2ccc(N=C3NCCN3)cc2)cc1`, the ΔTm in the assay with Nucleic Acid [1] worked out at 30 °C; with Nucleic Acid [2], 11.5 °C; in the assay with Nucleic Acid [3], 14 °C.

`N=C(N)Nc1ccc(C(=O)c2ccc(N=C3NCCN3)cc2)cc1`: the results for the ΔTm in the assay on Nucleic Acid [1], in the assay on Nucleic Acid [2] and in the assay on Nucleic Acid [3] were 32 °C, 8 °C and 15 °C, respectively.

For `Cn1cc(NC(=O)c2cc(NC(=O)CNC(=N)N)cn2C)cc1C(=O)NCCC(=N)N`, in the assay with Nucleic Acid [3], the ΔTm worked out at 39 °C.

For the compound `N=C(N)Nc1ccc(Cc2ccc(N=C3NCCN3)cc2)cc1`, the values for the thermal shift (ΔTm) with Nucleic Acid [1], in the assay on Nucleic Acid [2] and in the assay with Nucleic Acid [3] were 17.2 °C, 6 °C and 6 °C, respectively.

In the case of `Nc1ccc(Nc2ccc(N=C3NCCN3)cc2)cc1`, in the assay on Nucleic Acid [2], the ΔTm stood at 2 °C.

Consider `N=C(N)Oc1ccc(Sc2ccc(OC(=N)N)cc2)cc1`, for which, in the assay with Nucleic Acid [2], the ΔTm was 5 °C.

With `N=C(N)Nc1ccc(CCc2ccc(N)cc2)cc1`, the ΔTm with Nucleic Acid [2] is 0 °C.

As to `N=C(N)Oc1ccc(Cc2ccc(O)cc2)cc1`, the ΔTm in the assay with Nucleic Acid [2] turned out to be 2 °C.

Turning to `Nc1ccc(Oc2ccc(N=C3NCCN3)cc2)cc1`, the ΔTm with Nucleic Acid [2] was 0 °C.

As for `N=C(N)Nc1ccc(Cc2ccc(N)cc2)cc1`, in the assay on Nucleic Acid [2], the ΔTm is 3 °C.

Turning to `N=C(N)Nc1ccc(Oc2ccc(N)cc2)cc1`, the ΔTm in the assay with Nucleic Acid [2] stood at 2 °C.

Turning to `N=C(N)Nc1ccc(Nc2ccc(N)cc2)cc1`, the ΔTm with Nucleic Acid [2] was 2 °C.

In the case of `N=C(N)Oc1ccc(Cc2ccc(OC(=N)N)cc2)cc1`, in the assay with Nucleic Acid [2], the ΔTm came out at 4 °C.

Consider `N=C(N)Nc1ccc(Sc2ccc(N)cc2)cc1`, for which, in the assay on Nucleic Acid [2], the ΔTm worked out at 2 °C.

As to `N=C(N)Nc1ccc(CCc2ccc(N=C3NCCN3)cc2)cc1`, the figures for the ΔTm in the assay with Nucleic Acid [1], in the assay with Nucleic Acid [2] and in the assay on Nucleic Acid [3] were 29 °C, 8 °C and 16 °C, respectively.

For `N=C(N)Oc1ccc(Sc2ccc(O)cc2)cc1`, in the assay on Nucleic Acid [2], the ΔTm came out at 2 °C.

As for `N=C(N)Nc1ccc(Sc2ccc(N=C3NCCN3)cc2)cc1`, the ΔTm with Nucleic Acid [1] amounted to 23 °C; in the assay with Nucleic Acid [2], 7 °C; in the assay on Nucleic Acid [3] it was 9 °C.

Turning to `Nc1ccc(Sc2ccc(N=C3NCCN3)cc2)cc1`, in the assay with Nucleic Acid [2], the ΔTm was 0 °C.

Regarding `N=C(N)Nc1ccc(N2CCN(c3ccc(N)cc3)CC2)cc1`, the ΔTm with Nucleic Acid [2] was determined as 2 °C.

Consider `Nc1ccc(NC(=O)Nc2ccc(N=C3NCCN3)cc2)cc1`, for which, in the assay with Nucleic Acid [2], the ΔTm was 4 °C.

For `N=C(N)Nc1ccc(NC(=O)Nc2ccc(N)cc2)cc1`, the ΔTm in the assay on Nucleic Acid [2] is 2 °C.

As to `Nc1ccc(N2CCN(c3ccc(N=C4NCCN4)cc3)CC2)cc1`, the ΔTm in the assay on Nucleic Acid [2] is 1 °C.

On to `N=C(N)Oc1ccc(Oc2ccc(O)cc2)cc1`, for which the ΔTm with Nucleic Acid [2] is 4 °C.

For `N=C(N)Nc1ccc(N2CCN(c3ccc(N=C4NCCN4)cc3)CC2)cc1`, the figures for the ΔTm in the assay on Nucleic Acid [1], in the assay with Nucleic Acid [2] and in the assay with Nucleic Acid [3] were 31.1 °C, 9 °C and 15 °C, respectively.

For `N=C(N)Nc1ccc(Nc2ccc(N=C3NCCN3)cc2)cc1`, the ΔTm in the assay with Nucleic Acid [1] turned out to be 35.1 °C; with Nucleic Acid [2] it was 12 °C; in the assay on Nucleic Acid [3] it was 17.5 °C.
